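Interpolation was linear, between the two tested concentrations surrounding the appropriate level; five concentrations were tested over 48 hours in 96-well plates. GI50 marks 50% less growth.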 The source made the active and inactive calls. Rule as the data show it: active = GI50 up to about 1.1 µM and inactive = higher.
What was measured:
Test in all cases: NCI-60 cell line screen, 48 h
SK-MEL-5 = test system: SK-MEL-5
U-251 = test system: U-251
HCT-15 = test system: HCT-15
HL-60 = test system: HL-60
OVCAR-3 = test system: OVCAR-3
NCI/ADR-RES = test system: NCI/ADR-RES
SK-OV-3 = test system: SK-OV-3
RPMI-8226 = test system: RPMI-8226
MDA-N = test system: MDA-N
MDA-MB-231 = test system: MDA-MB-231
KM12 = test system: KM12
SN12C = test system: SN12C
SF-268 = test system: SF-268
OVCAR-8 = test system: OVCAR-8
UO-31 = test system: UO-31
A498 = test system: A498
K562 = test system: K562
Malme-3M = test system: Malme-3M
MCF7 = test system: MCF7
DU-145 = test system: DU-145

Structure (SMILES) | GI50 (SK-MEL-5) | GI50 (U-251) | GI50 (HCT-15) [µM] | GI50 (HL-60) | GI50 (OVCAR-3) | GI50 (NCI/ADR-RES) | GI50 (SK-OV-3) | GI50 (RPMI-8226) | GI50 (MDA-N) | GI50 (MDA-MB-231) | GI50 (KM12) | GI50 (SN12C) | GI50 (SF-268) | GI50 (OVCAR-8) | GI50 (UO-31) | GI50 (A498) | GI50 (K562) | GI50 (Malme-3M) | GI50 (MCF7) | GI50 (DU-145)
Cc1c(Br)c(Br)c(C)[s+]1[O-] | 10.4 µM (inactive) | 11.6 µM (inactive) | 12.4 | 3.2 µM (inactive) | 5.92 µM (inactive) | 29 µM (inactive) | 23.8 µM (inactive) | 3.8 µM (inactive) | 12.6 µM (inactive) | 22.9 µM (inactive) | 13.8 µM (inactive) | 11.8 µM (inactive) | 25.2 µM (inactive) | 21.6 µM (inactive) | 13.6 µM (inactive) | 27.4 µM (inactive) | 25.6 µM (inactive) | 17.3 µM (inactive) | 25 µM (inactive) | –
Cn1nc(-c2ccccc2)c2c(/C=C/c3ccccc3)onc2c1=O | > 100 µM (inactive) | 64 µM (inactive) | > 100 | > 100 µM (inactive) | 50.6 µM (inactive) | – | 43.8 µM (inactive) | > 100 µM (inactive) | – | – | > 100 µM (inactive) | > 100 µM (inactive) | 43.9 µM (inactive) | 33.7 µM (inactive) | 6.82 µM (inactive) | > 100 µM (inactive) | > 100 µM (inactive) | 71.4 µM (inactive) | – | –
COc1cc2c(cc1OC)C(CC1=C(c3ccccc3)CN3CCc4cc(OC)c(OC)cc4C3C1)NCC2 (stereo unspecified) | 12.4 µM (inactive) | 15.2 µM (inactive) | 17.7 | 12.2 µM (inactive) | 17.3 µM (inactive) | – | 28 µM (inactive) | 9.84 µM (inactive) | – | – | 17.2 µM (inactive) | 17.9 µM (inactive) | 15 µM (inactive) | 19.3 µM (inactive) | 11.1 µM (inactive) | 16.7 µM (inactive) | 12.2 µM (inactive) | 19.5 µM (inactive) | – | –
CC(=O)C1C(=O)C(=O)N(c2ccccc2N2C(=O)C(=O)C(C(C)=O)C2=O)C1=O (stereo unspecified) | > 100 µM (inactive) | > 100 µM (inactive) | > 100 | > 100 µM (inactive) | > 100 µM (inactive) | – | > 100 µM (inactive) | > 100 µM (inactive) | – | – | > 100 µM (inactive) | > 100 µM (inactive) | > 100 µM (inactive) | > 100 µM (inactive) | > 100 µM (inactive) | > 100 µM (inactive) | > 100 µM (inactive) | > 100 µM (inactive) | – | –
COCN(C)c1nc(N(C)C)nc(N(C)C)n1 | > 100 µM (inactive) | > 100 µM (inactive) | > 100 | > 100 µM (inactive) | > 100 µM (inactive) | – | > 100 µM (inactive) | > 100 µM (inactive) | – | – | > 100 µM (inactive) | > 100 µM (inactive) | > 100 µM (inactive) | > 100 µM (inactive) | > 100 µM (inactive) | > 100 µM (inactive) | > 100 µM (inactive) | > 100 µM (inactive) | – | –
CCOc1ccc2nc(NC(=O)C(=O)C(c3cnc4ccccc4n3)[N+](=O)[O-])sc2c1 (stereo unspecified) | > 100 µM (inactive) | – | > 100 | 56.2 µM (inactive) | > 100 µM (inactive) | > 100 µM (inactive) | > 100 µM (inactive) | 61.5 µM (inactive) | > 100 µM (inactive) | > 100 µM (inactive) | > 100 µM (inactive) | > 100 µM (inactive) | > 100 µM (inactive) | 53.5 µM (inactive) | 77.3 µM (inactive) | > 100 µM (inactive) | 98.2 µM (inactive) | > 100 µM (inactive) | > 100 µM (inactive) | –
CC(=O)Nc1ccc(/C=C/C(=O)c2sc(-n3nc(-c4ccccc4)cc3-c3ccccc3)nc2C)cc1 | 95.3 µM (inactive) | > 10 µM (inactive) | > 10 | > 10 µM (inactive) | > 10 µM (inactive) | – | > 10 µM (inactive) | > 10 µM (inactive) | – | – | 64.9 µM (inactive) | > 10 µM (inactive) | > 10 µM (inactive) | > 10 µM (inactive) | > 10 µM (inactive) | > 10 µM (inactive) | > 10 µM (inactive) | > 10 µM (inactive) | – | –
C=CCC12CC(=O)CCC1c1ccc(OC)cc1C2=O (stereo unspecified) | > 100 µM (inactive) | > 100 µM (inactive) | > 100 | > 100 µM (inactive) | > 100 µM (inactive) | – | > 100 µM (inactive) | > 100 µM (inactive) | – | – | > 100 µM (inactive) | > 100 µM (inactive) | > 100 µM (inactive) | > 100 µM (inactive) | > 100 µM (inactive) | > 100 µM (inactive) | > 100 µM (inactive) | > 100 µM (inactive) | – | –
CC(C)=CC1C(COC(=O)c2ccccc2Cl)C1(C)C (stereo unspecified) | 24 µM (inactive) | 30.1 µM (inactive) | 25.6 | 24.1 µM (inactive) | 26.1 µM (inactive) | 41.2 µM (inactive) | – | – | 29.6 µM (inactive) | 49.7 µM (inactive) | 30.4 µM (inactive) | 32.6 µM (inactive) | 27.5 µM (inactive) | 53.1 µM (inactive) | 78.5 µM (inactive) | > 100 µM (inactive) | 34 µM (inactive) | 23 µM (inactive) | – | 32.8 µM (inactive)
Cc1c(Cl)ccc2c1NC(=O)C2(O)CC(=O)c1ccc(Cl)cc1 (stereo unspecified) | 53.3 µM (inactive) | 60.8 µM (inactive) | 28.2 | 28.6 µM (inactive) | 57.3 µM (inactive) | – | > 100 µM (inactive) | 30.8 µM (inactive) | – | – | 51.2 µM (inactive) | 26.8 µM (inactive) | > 70.1 µM (inactive) | 34.9 µM (inactive) | > 100 µM (inactive) | > 43.3 µM (inactive) | 22.8 µM (inactive) | 37.8 µM (inactive) | – | –
NC(CCC(=O)Nc1ccc(O)cc1)C(=O)O (stereo unspecified) | > 100 µM (inactive) | > 100 µM (inactive) | > 100 | > 100 µM (inactive) | > 100 µM (inactive) | – | > 100 µM (inactive) | > 100 µM (inactive) | – | – | > 100 µM (inactive) | > 100 µM (inactive) | > 100 µM (inactive) | > 100 µM (inactive) | > 100 µM (inactive) | > 100 µM (inactive) | > 100 µM (inactive) | > 100 µM (inactive) | – | –
COC(=O)[C@@](NC(=O)OCc1ccccc1)([C@H](C)O)C(F)(F)F | > 100 µM (inactive) | > 100 µM (inactive) | > 100 | > 100 µM (inactive) | > 100 µM (inactive) | > 100 µM (inactive) | > 100 µM (inactive) | > 100 µM (inactive) | – | > 100 µM (inactive) | > 100 µM (inactive) | – | > 100 µM (inactive) | > 100 µM (inactive) | > 100 µM (inactive) | > 100 µM (inactive) | > 100 µM (inactive) | > 100 µM (inactive) | – | > 100 µM (inactive)
COc1ccc(N/N=C(\CCN(C)C)c2ccccc2)cc1 | 6.37 µM (inactive) | 1.79 µM (inactive) | 1.15 | 2.82 µM (inactive) | 2.81 µM (inactive) | – | 3.41 µM (inactive) | 2.39 µM (inactive) | – | – | 4.73 µM (inactive) | 3.9 µM (inactive) | 1.62 µM (inactive) | 12.8 µM (inactive) | 1.37 µM (inactive) | 14.9 µM (inactive) | 2.39 µM (inactive) | 11.7 µM (inactive) | – | –

Reference: ChEMBL document CHEMBL1201862, “PubChem BioAssay data set” (2004)
